What was measured:
MCF-7 cells = experiment: Soft agar growth assay (96-well, MTT readout); format: cell-based, human
Procedure: To perform soft agar colony formation assays, 50 μl of 0.5% agarose in serum containing medium was plated onto each well of 96-well flat-bottom microplates, as a base agar layer. Next, 5×10^3 cells in a 100 μl mixture of 0.35% agarose in serum containing medium were plated onto the base layer. Subsequently, 100 μl of the medium was added to prevent drying of the agarose gels. For antibody treatment, the antibodies at the indicated concentrations were added into the top agar layer and the culture medium to ensure the complete exposure of cells to antibodies. The plates were incubated at 37° C. in a humidified incubator. The top culture medium including the antibodies was changed every 3 days. After 10 days, 20 μl of 5 mg/ml MTT (Sigma Chemical Company, St Louis, Mo., USA) was added into each well and incubated at 37° C. for 4 hours followed by adding 100 μl of acidified lysis buffer (0.01% HCl in 10% SDS). The plate was incubated at 42° C. to ensure a homogenous mixture. The plate was shaken briefly and then read at 595 nm (test wavelength) and 690 nm (reference wavelength) using the Synergy™ 2 Multi-Mode Microplate Reader (BioTek instruments, Inc., Vermont, USA).

[1] = test system: MCF7-ARTN and MCF7-Vec cells; experiment: Soft agar colony formation in the presence of Tamoxifen (six-well); format: cell-based, human; settings: 1 μM and 5 μM
Procedure: For soft agar colony formation assay, cells were cultured in 6-well plates first covered with a layer of agar (0.5%). Cells were grown in RPMI 1640 media containing 10% FBS. The middle layer included 5×10^3 cells in 0.35% agar in RPMI 1640 media containing 10% FBS. Media was added as the top layer to prevent drying of the agarose gels. The plates were incubated at 37° C. in a humidified incubator for 14 days. After this, cells were stained with 0.5 ml of 0.005% crystal violet in distilled water for 1 h and distained for 2 h in water. Colonies were inspected and photographed.

[2] = test system: MCF-7 breast cancer cells; settings: cited from earlier work
[3] = test system: MCF7-ARTN and MCF7-Vec cells; experiment: MTT assay of chemotherapy drug induced death; format: cell-based, human; settings: 10% serum; both MCF7-ARTN and MCF7-Vec cells
Procedure: MTT (3-[4,5-dimethylthiazol-2-yl]-2,5-diphenyl tetrazolium bromide) assays were used measure cell proliferation. Cells were seeded into 96 well flat bottom tissue culture microplates in 100 μl RPMI-1640 culture medium containing 10% FBS at a concentration of 5×10^3 cells/well. On assay day, 10 μl of the MTT labelling reagent was added at a final concentration 0.5 mg/ml to each well and the cells were labelled for 5 h in the incubator. At the end of the incubation period, the media was removed and the converted dye was solubilised with 100 μl solubilising solution (0.01N HCl in 10% SDS in water). The plates were then sealed and placed at 37° C. overnight to completely solubilise the purple formazan crystals. The absorbance of the converted dye was measured using Spectra Max 250 multiplate reader at a wavelength of 570 nm with background subtraction at 650 nm. Each treatment was performed at least in triplicate.

SMILES	soft agar growth compared with controls (MCF-7 cells; Tamoxifen 1 μM alone) [%]	number of colonies formed in soft agar [1]	effect at lower concentrations ([2]; 0.1-1 μM)	effect at pharmacological concentrations ([2]; above 5 μM)	cell death (MTT viability) [3]	soft agar growth compared with controls (MCF-7 cells; Faslodex (ICI 182,780) 100 nM alone) [%]
CC/C(=C(\c1ccccc1)c1ccc(OCCN(C)C)cc1)c1ccccc1 [Tamoxifen]	40.4	reduced the number of colonies	induce a cell-cycle arrest	induce apoptosis	caused cell death in a dose dependent manner	–
C[C@]12CC[C@@H]3c4ccc(O)cc4C[C@@H](CCCCCCCCC[S+]([O-])CCCC(F)(F)C(F)(F)F)[C@H]3[C@@H]1CC[C@@H]2O (stereo partly drawn) [Faslodex, Faslodex (ICI 182,780)]	–	–	–	–	–	55.8

— US20110206673A1, “POLYPEPTIDES AND POLYNUCLEOTIDES FOR ARTEMIN AND RELATED LIGANDS, AND METHODS OF USE THEREOF” (priority 2007, published 2011)
